# According to the supplement of paper PMC10307832:
# How the values were obtained:
# Experiment in all cases: relative viability (nuclei count vs DMSO), 5 days (fraction); higher = more cells survive
# NCI-H2009 = test system: NCI-H2009
# How it was run: (§1)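 The day after seeding in 1536-well plates, lung cancer cell lines were treated by pin tool with a single drug, or with a fixed anchor-drug dose together with five library-drug doses (not always all listed) in √10 steps. After 5 days, a combined fix-and-stain solution (final 0.05% Triton X-100, 1% formaldehyde, 1 ug/ml Hoechst) was added. Nuclei counted on 4× images gave relative viability as treated counts over vehicle counts, reported as the median of duplicate plates.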
# SW 1573 = test system: SW 1573
# How it was run: as §1
# NCI-H2023 = test system: NCI-H2023
# How it was run: as §1
# NCI-H2405 = test system: NCI-H2405
# How it was run: as §1
# NCI-H2085 = test system: NCI-H2085
# How it was run: as §1
# HCC-827 = test system: HCC-827
# How it was run: as §1
# NCI-H1355 = test system: NCI-H1355
# How it was run: as §1
# ABC-1 = test system: ABC-1
# How it was run: as §1
# HCC-44 = test system: HCC-44
# How it was run: as §1
# EPLC-272H = test system: EPLC-272H
# How it was run: as §1
# PC-14 = test system: PC-14
# How it was run: as §1
# NCI-H2228 = test system: NCI-H2228
# How it was run: as §1
# COR-L23 = test system: COR-L23
# How it was run: as §1
# NCI-H1734 = test system: NCI-H1734
# How it was run: as §1
# NCI-H2347 = test system: NCI-H2347
# How it was run: as §1
# HCC-366 = test system: HCC-366
# How it was run: as §1
# NCI-H1944 = test system: NCI-H1944
# How it was run: as §1
# HCC-15 = test system: HCC-15
# How it was run: as §1
# NCI-H1793 = test system: NCI-H1793
# How it was run: as §1
# NCI-H3122 = test system: NCI-H3122
# How it was run: as §1
compound,measurement,setting,value
CN1CCN(CCOc2cc(OC3CCOCC3)c3c(Nc4c(Cl)ccc5c4OCO5)ncnc3c2)CC1 [Saracatinib] + CS(=O)(=O)CCNCc1ccc(-c2ccc3ncnc(Nc4ccc(OCc5cccc(F)c5)c(Cl)c4)c3c2)o1 [Lapatinib] (partner 2 µM),relative viability,NCI-H2009; first compound 0.02 µM,0.992
same,relative viability,NCI-H2009; first compound 0.2 µM,0.889
same,relative viability,NCI-H2009; first compound 0.6325 µM,1.06
same,relative viability,NCI-H2009; first compound 2 µM,0.772
same,relative viability,SW 1573; first compound 0.02 µM,1.27
same,relative viability,SW 1573; first compound 0.2 µM,1.1
same,relative viability,SW 1573; first compound 0.6325 µM,1.16
same,relative viability,SW 1573; first compound 2 µM,1.14
same,relative viability,NCI-H2023; first compound 0.02 µM,1.33
same,relative viability,NCI-H2023; first compound 0.2 µM,0.701
same,relative viability,NCI-H2023; first compound 0.6325 µM,0.998
same,relative viability,NCI-H2023; first compound 2 µM,0.698
same,relative viability,NCI-H2405; first compound 0.02 µM,1.03
same,relative viability,NCI-H2405; first compound 0.2 µM,0.966
same,relative viability,NCI-H2405; first compound 0.6325 µM,0.984
same,relative viability,NCI-H2405; first compound 2 µM,0.511
same,relative viability,NCI-H2085; first compound 0.02 µM,0.802
same,relative viability,NCI-H2085; first compound 0.2 µM,0.615
same,relative viability,NCI-H2085; first compound 0.6325 µM,0.811
same,relative viability,NCI-H2085; first compound 2 µM,0.725
same,relative viability,HCC-827; first compound 0.02 µM,0.174
same,relative viability,HCC-827; first compound 0.2 µM,0.202
same,relative viability,HCC-827; first compound 0.6325 µM,0.199
same,relative viability,HCC-827; first compound 2 µM,0.163
same,relative viability,NCI-H1355; first compound 0.02 µM,1.05
same,relative viability,NCI-H1355; first compound 0.2 µM,0.956
same,relative viability,NCI-H1355; first compound 0.6325 µM,1.18
same,relative viability,NCI-H1355; first compound 2 µM,0.894
same,relative viability,ABC-1; first compound 0.02 µM,1.16
same,relative viability,ABC-1; first compound 0.2 µM,0.921
same,relative viability,ABC-1; first compound 0.6325 µM,1.08
same,relative viability,ABC-1; first compound 2 µM,0.921
same,relative viability,HCC-44; first compound 0.02 µM,1.01
same,relative viability,HCC-44; first compound 0.2 µM,0.902
same,relative viability,HCC-44; first compound 0.6325 µM,1.17
same,relative viability,HCC-44; first compound 2 µM,1.15
same,relative viability,EPLC-272H; first compound 0.02 µM,1.01
same,relative viability,EPLC-272H; first compound 0.2 µM,0.806
same,relative viability,EPLC-272H; first compound 0.6325 µM,1.05
same,relative viability,EPLC-272H; first compound 2 µM,0.893
same,relative viability,PC-14; first compound 0.02 µM,0.334
same,relative viability,PC-14; first compound 0.2 µM,0.26
same,relative viability,PC-14; first compound 0.6325 µM,0.305
same,relative viability,PC-14; first compound 2 µM,0.185
same,relative viability,NCI-H2228; first compound 0.02 µM,1.35
same,relative viability,NCI-H2228; first compound 0.2 µM,0.995
same,relative viability,NCI-H2228; first compound 0.6325 µM,1.07
same,relative viability,NCI-H2228; first compound 2 µM,0.674
same,relative viability,COR-L23; first compound 0.02 µM,0.947
same,relative viability,COR-L23; first compound 0.2 µM,0.571
same,relative viability,COR-L23; first compound 0.6325 µM,1.1
same,relative viability,COR-L23; first compound 2 µM,0.897
same,relative viability,NCI-H1734; first compound 0.02 µM,1.11
same,relative viability,NCI-H1734; first compound 0.6325 µM,0.999
same,relative viability,NCI-H1734; first compound 2 µM,0.777
same,relative viability,NCI-H2347; first compound 0.02 µM,0.988
same,relative viability,NCI-H2347; first compound 0.2 µM,0.817
same,relative viability,NCI-H2347; first compound 0.6325 µM,1.12
same,relative viability,NCI-H2347; first compound 2 µM,0.903
same,relative viability,HCC-366; first compound 0.02 µM,1.02
same,relative viability,HCC-366; first compound 0.6325 µM,1.04
same,relative viability,HCC-366; first compound 2 µM,0.707
same,relative viability,NCI-H1944; first compound 0.02 µM,0.808
same,relative viability,NCI-H1944; first compound 0.6325 µM,0.872
same,relative viability,NCI-H1944; first compound 2 µM,0.459
same,relative viability,HCC-15; first compound 0.02 µM,0.859
same,relative viability,HCC-15; first compound 0.2 µM,0.828
same,relative viability,HCC-15; first compound 0.6325 µM,0.961
same,relative viability,HCC-15; first compound 2 µM,0.854
same,relative viability,NCI-H1793; first compound 0.02 µM,0.894
same,relative viability,NCI-H1793; first compound 0.2 µM,0.587
same,relative viability,NCI-H1793; first compound 0.6325 µM,0.974
same,relative viability,NCI-H1793; first compound 2 µM,0.76
same,relative viability,NCI-H3122; first compound 0.02 µM,1.03
same,relative viability,NCI-H3122; first compound 0.6325 µM,0.894
same,relative viability,NCI-H3122; first compound 2 µM,0.781
